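96-well plates; 48 h exposure; 5 concentrations. Endpoints by linear interpolation between flanking doses. Not reached: highest tested concentration assigned. At the GI50, growth is halved. TGI: concentration producing complete growth inhibition.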

Among the test systems are RPMI-8226 leukemia; UACC-257 melanoma; MCF7 breast; MDA-N; NCI-H460 lung; U251 CNS; NCI-H226 lung; 786-0 renal; MOLT-4 leukemia; LOX IMVI melanoma; MDA-MB-435.
Common to all, as to assay: inhibition of tumour cell growth, NCI panel, 48 h

As to `CCOC(=O)CCC(NC(=O)OCc1ccccc1)C(=O)NC(CCC(=O)OCC)C(=O)NC(CCC(=O)OCC)C(=O)NNC(=O)OC(C)(C)C` (configuration not stated), the TGI in the test on RPMI-8226 leukemia, in the test with UACC-257 melanoma, with MCF7 breast, with MDA-N, in the test on NCI-H460 lung and with U251 CNS was above 100 µM throughout. For the same compound, the TGI with NCI-H226 lung, in the test with 786-0 renal and with MOLT-4 leukemia was above 100 µM in each case.

Consider `C=CCCCCn1c2ccccc2c2c(C)c3cnccc3c(C)c21`, for which the TGI amounted to 12.8 µM in the test on RPMI-8226 leukemia; 18.7 µM in the test on UACC-257 melanoma; 36.7 µM in the test with MCF7 breast; 39.2 µM in the test on NCI-H460 lung; 40.6 µM in the test on U251 CNS; 82.5 µM in the test with LOX IMVI melanoma. Besides, the TGI was 94.9 µM in the test on NCI-H226 lung and 9.47 µM with MOLT-4 leukemia.

Regarding `O=C(O)Cc1ccccc1CCc1ccccc1Cl`, the TGI in the test with RPMI-8226 leukemia, in the test with UACC-257 melanoma, in the test with NCI-H460 lung, in the test with U251 CNS, in the test on LOX IMVI melanoma and with NCI-H226 lung was above 100 µM in each case. The TGI with 786-0 renal and in the test with MOLT-4 leukemia was above 100 µM in each case.

Turning to `NC(=S)N/N=C1\CCCC1C(O)(C(F)(F)Cl)C(F)(F)Cl` (configuration not stated), the TGI in the test with RPMI-8226 leukemia, in the test on UACC-257 melanoma, with MCF7 breast, in the test with NCI-H460 lung, in the test on MDA-MB-435 and in the test with U251 CNS was above 10 µM each time. In addition, the TGI in the test on LOX IMVI melanoma, in the test on NCI-H226 lung, in the test on 786-0 renal and in the test on MOLT-4 leukemia was above 10 µM in each case.

For the compound `CC1(C)[C@@H](OC(N)=O)C=C[C@]2(CO)[C@H]3CC[C@]4(C)[C@@H](c5ccc(=O)oc5)[C@@H](Cl)C[C@]4(O)C3=CC[C@@H]12`, the GI50 with RPMI-8226 leukemia was 0.00917 µM; in the test with UACC-257 melanoma it was 0.012 µM; in the test on MCF7 breast, below 0.0001 µM; with NCI-H460 lung it was below 0.0001 µM; in the test with MDA-MB-435, 0.00814 µM; in the test on U251 CNS, 0.0043 µM. For the same compound, the GI50 in the test on LOX IMVI melanoma was 0.00209 µM; with NCI-H226 lung it was 0.00448 µM; in the test on MOLT-4 leukemia, below 0.0001 µM. Moreover, the TGI in the test on RPMI-8226 leukemia was 0.0956 µM; in the test with UACC-257 melanoma, 0.029 µM; in the test on MCF7 breast it was 0.0299 µM; in the test on NCI-H460 lung it was 0.00128 µM; in the test on MDA-MB-435 it was 0.0215 µM; with U251 CNS, 0.0158 µM. Also, the TGI in the test on LOX IMVI melanoma amounted to 0.0106 µM; with NCI-H226 lung, 0.0168 µM.

As to `O=c1[nH]c2cc([N+](=O)[O-])c(Nc3c4ccccc4nc4ccccc34)c([N+](=O)[O-])c2[nH]1`, the TGI in the test with RPMI-8226 leukemia came out at 8.25 µM; in the test on UACC-257 melanoma, 11.2 µM; with MCF7 breast it was 8.36 µM; in the test on NCI-H460 lung, 7.75 µM; in the test with MDA-MB-435 it was 8.62 µM; in the test on U251 CNS, 22.6 µM. Also, the TGI in the test with LOX IMVI melanoma is 7.02 µM; in the test with NCI-H226 lung, 15 µM; in the test with 786-0 renal, 17.6 µM; with MOLT-4 leukemia, 5.02 µM.

On to `Cn1ccc2c(c1=O)C(=O)OC2(C)C`, for which the TGI with RPMI-8226 leukemia, in the test on UACC-257 melanoma, in the test on MCF7 breast, in the test with MDA-N, in the test on NCI-H460 lung and in the test with U251 CNS was above 100 µM in each case. The TGI in the test with LOX IMVI melanoma, in the test with NCI-H226 lung, with 786-0 renal and in the test on MOLT-4 leukemia was above 100 µM each time.

In the case of `NNC(=O)Cn1ccnn1`, the TGI in the test on RPMI-8226 leukemia, in the test with UACC-257 melanoma, in the test with MCF7 breast, with NCI-H460 lung, in the test with MDA-MB-435 and in the test on U251 CNS was above 100 µM in each case. The TGI with LOX IMVI melanoma, in the test on 786-0 renal and in the test with MOLT-4 leukemia was above 100 µM in each case.

Regarding `C=C(C)[C@@H]1CC[C@]2(CO)CC[C@]3(C)[C@H](CC[C@@H]4[C@@](C)(CCCN)[C@H](C(=C)C)CC[C@]43C)[C@@H]12`, the GI50 in the test with RPMI-8226 leukemia was 1.46 µM; in the test on NCI-H460 lung, 1.65 µM; with MDA-MB-435 it was 1.72 µM. Further, the TGI in the test with RPMI-8226 leukemia was determined as 3.99 µM; with NCI-H460 lung, 3.24 µM; in the test on MDA-MB-435, 3.16 µM.

Consider `COc1ccc2c(c1)C(=O)C1CCC(=O)N1C2c1ccc2c(c1)OCO2` (configuration not stated), for which the TGI in the test with RPMI-8226 leukemia is 12.9 µM; with UACC-257 melanoma, 40.4 µM; in the test with MDA-N it was above 100 µM; in the test with NCI-H460 lung, 64.4 µM; in the test on MDA-MB-435, 24.4 µM; in the test on U251 CNS, 31.5 µM. For the same compound, the TGI with LOX IMVI melanoma came to 35.1 µM; in the test on NCI-H226 lung, 30.3 µM; with 786-0 renal, 78.2 µM; with MOLT-4 leukemia, 11.2 µM.

Turning to `COc1cc(CNC(=S)CCCCCCCCCCC(C)C)ccc1O`, the TGI in the test with RPMI-8226 leukemia, in the test on UACC-257 melanoma, with MCF7 breast, in the test on NCI-H460 lung, in the test on MDA-MB-435 and in the test on U251 CNS was above 100 µM each time. In addition, the TGI in the test with LOX IMVI melanoma is above 100 µM; in the test with NCI-H226 lung, 86.3 µM; with 786-0 renal it was above 100 µM; in the test with MOLT-4 leukemia, above 100 µM.

Turning to `O=c1c2cc(Br)ccc2ncn1COCc1ccccc1`, the TGI is above 100 µM in the test with UACC-257 melanoma; above 100 µM in the test on MCF7 breast; above 100 µM in the test with MDA-MB-435; above 100 µM in the test with U251 CNS; above 100 µM in the test on LOX IMVI melanoma; above 1 µM with NCI-H226 lung. In addition, the TGI in the test on 786-0 renal and in the test on MOLT-4 leukemia was above 100 µM throughout.

Take `C[C@]12CCC(=O)C=C1CC[C@@H]1[C@@H]2[C@@H](O)C[C@@]2(C)[C@H]1CC[C@]2(O)C(=O)COC(=O)CCC1CCCC1`: the TGI in the test with UACC-257 melanoma, in the test with NCI-H460 lung, in the test on U251 CNS, in the test with LOX IMVI melanoma, in the test with NCI-H226 lung and with 786-0 renal was above 100 µM in each case. Further, in the test on MOLT-4 leukemia, the TGI is above 100 µM.

(Values after PubChem BioAssay (NCI).)
